ChEMBL document CHEMBL1134504, “Synthesis and cytotoxic activity of 7-oxo-7H-dibenz[f,ij]isoquinoline and 7-oxo-7H-benzo[e]perimidine derivatives” (J Med Chem, 2001)

Tests used:
[1] = test system: Jurkat; experiment: Inhibitory activity against Jurkat human leukemia cells; format: functional, cell-based
[2] = test system: Lewis lung carcinoma cell line; experiment: Inhibitory activity against Lewis lung carcinoma cells; format: functional, cell-based; details: Mus musculus
[3] = test system: P388; experiment: Inhibitory activity against P388 murine leukemia cells; format: functional, cell-based; details: Mus musculus
[4] = test system: Jurkat; experiment: Ratio of IC50 against Jurkat human leukemia amsacrine-resistant cells (JLA) to Jurkat human leukemia cells (JLC); format: functional
[5] = test system: Jurkat; experiment: Ratio of IC50 against Jurkat human leukemia doxorubicin-resistant cells (JLD) to Jurkat human leukemia cells (JLC); format: functional

Structure (SMILES)	IC50 [1]	IC50 [2]	IC50 [3]	IC50 ratio [4]	IC50 ratio [5]
Cc1cc2c3c(ccc(C(=O)NCCN(C)C)c3n1)C(=O)c1ccccc1-2	0.717 µM	0.717 µM	0.89 µM	1.2	1
CN(C)CCNC(=O)c1nc2c3c(cccc3n1)C(=O)c1ccccc1-2	1.24 µM	1.03 µM	1.5 µM	1	0.9
CN(C)CC(CN(C)C)c1cc2c3c(cccc3n1)C(=O)c1ccccc1-2	0.55 µM	0.098 µM	0.11 µM	0.8	1
CN(C)CCc1cc2c3c(cccc3n1)C(=O)c1ccccc1-2	1.01 µM	0.887 µM	2.3 µM	0.8	0.8
CN(C)CCNc1nc2c3c(cccc3n1)C(=O)c1ccccc1-2	0.86 µM	0.525 µM	1 µM	0.7	0.7
CN(C)CCNC(=O)c1cc2c3c(cccc3n1)C(=O)c1cccc(Cl)c1-2	0.238 µM	0.128 µM	0.13 µM	0.7	0.8
COc1cc(NS(C)(=O)=O)ccc1Nc1c2ccccc2nc2ccccc12 [AMSACRINE]	–	–	–	85	74
CC[C@@]1(O)C(=O)OCc2c1cc1n(c2=O)Cc2cc3ccccc3nc2-1 [CAMPTOTHECIN]	0.0056 µM	0.033 µM	0.013 µM	2	1.4

Further lines, results first:

IC50 [1]	IC50 [2]	IC50 [3]	IC50 ratio [4]	IC50 ratio [5]	Structure (SMILES)
0.424 µM	0.101 µM	0.1 µM	2.5	2.5	Cc1cc2c3c(cccc3n1)C(=O)c1cccc(C(=O)NCCN(C)C)c1-2
1.42 µM	1.79 µM	6.6 µM	1	1.1	Cc1cc2c3c(cccc3n1)C(=O)c1c(C(=O)NCCN(C)C)cccc1-2
3.36 µM	2.48 µM	6.2 µM	0.6	0.8	CN(C)CC/N=C/c1cc2c3c(cccc3n1)C(=O)c1ccccc1-2
0.566 µM	0.472 µM	0.79 µM	0.2	0.8	CN(CCNC(=O)c1cc2c3c(cccc3n1)C(=O)c1ccccc1-2)CCN(C)CCNC(=O)c1cc2c3c(cccc3n1)C(=O)c1ccccc1-2
0.8 µM	0.2 µM	5.8 µM	0.9	1.6	CN(C)CCNC(=O)c1cc2c3c(ccc(Cl)c3n1)C(=O)c1c(C(=O)NCCN(C)C)cccc1-2
0.422 µM	0.83 µM	0.34 µM	1	1.1	O=C1c2ccccc2-c2cc(/C=N/NC3=NCCN3)nc3cccc1c23
0.758 µM	0.483 µM	0.8 µM	1	0.9	CN(C)CCNC(=O)c1cc2c3c(cccc3n1)C(=O)c1c(Cl)cccc1-2
1.16 µM	1.08 µM	1.3 µM	0.8	0.9	CN(C)CCNc1cc2c3c(cccc3n1)C(=O)c1ccccc1-2
0.165 µM	0.035 µM	0.6 µM	0.2	0.8	CN(C)CCNC(=O)c1cc2c3c(cccc3n1)C(=O)c1ccccc1-2
